Columns and labels:
Assay in all cases: Postemergence glyphosate tolerance, visual injury
Format in all cases: in vivo, Arabidopsis thaliana
[1] = system: Arabidopsis transformed with TraP13 v2::dgt-14 (pDAB105529); details: for Visual % injury (Ave): 2 weeks after application
Excerpt: (§1) Transgenic T1 Arabidopsis plants containing the dgt-14 transgene were sprayed with differing rates of glyphosate. A distribution of varying concentrations of glyphosate rates, including elevated rates, were applied in this study to determine the relative levels of resistance (105, 420, 1,680 or 3,360 g ae/ha). The typical 1× field usage rate of glyphosate is 1,120 g ae/ha. The T1 Arabidopsis plants that were used in this study were variable in copy number for the dgt-14 transgene. The low copy dgt-14 T1 Arabidopsis plants were identified using the molecular confirmation assays described above, and self-pollinated and used to produce T2 plants.
(§2) The Arabidopsis T1 transformants were first selected from the background of untransformed seed using a glufosinate selection scheme. Three flats or 30,000 seed were analyzed for each T1 construct. The T1 plants selected above were molecularly characterized and the plants were subsequently transplanted to individual pots and sprayed with various rates of commercial glyphosate as previously described. The dose response of these plants is presented in terms of % visual injury 2 weeks after treatment (WAT). […] An arithmetic mean and standard deviation is presented for each construct used for Arabidopsis transformation. The range in individual response is also indicated in the last column for each rate and transformation. Wildtype, non-transformed Arabidopsis (c.v. Columbia) served as a glyphosate sensitive control.
(§3) Selected T1 Arabidopsis plants which were identified to contain low-copy numbers of transgene insertions (1-3 copies) were self-fertilized to produce a second generation for additional assessment of glyphosate tolerance. […] In the T2 generation hemizygous and homozygous plants were available for testing for each event and therefore were included for each rate of glyphosate tested. Hemizygous plants contain two different alleles at a locus as compared to homozygous plants which contain the same two alleles at a locus. The copy number and ploidy levels of the T2 plants were confirmed using the molecular analysis protocols previously described. Likewise, glyphosate was applied using the methods and rates as previously described. The dose response of the plants is presented in terms of % visual injury 2 weeks after treatment (WAT). […] An arithmetic mean and standard deviation are presented for each construct used for Arabidopsis transformation. The range in individual response is also indicated in the last column for each rate and transformation. Wildtype, non-transformed Arabidopsis (cv. Columbia) served as a glyphosate sensitive control. In addition, plants comprising a glyphosate herbicide resistance gene, dgt-1 (as described in U.S. patent Ser. No. 12/558,351, incorporated herein by reference in its entirety) were included as a positive control.
(§4) Randomly selected T2 Arabidopsis plants which were identified to contain low-copy numbers of transgene insertions (1-3 copies) were self-fertilized to produce a third generation for additional assessment of glyphosate tolerance. Arabidopsis seed from the third generation (T3) were planted and evaluated for glyphosate tolerance using the same protocols as previously described. […] These Events were assayed via LC-MS-MS to confirm that the plants expressed the DGT-14 protein. […] Exemplary resistant T3 Events comprised dgt-14 linked with TraP8 v2 (pDAB105526), TraP9 v2 (pDAB105527), TraP12 v2 (pDAB105528) and TraP13 v2 (pDAB105529).

[2] = system: Arabidopsis transformed with TraP5 v1::dgt-14 (pDAB102787); details: 2 weeks after application
Excerpt: as §1, §2, §3, §4

[3] = system: Arabidopsis transformed with TraP5 v2::dgt-14 (pDAB105525); details: 2 weeks after application
Excerpt: as §1, §2, §3, §4

[4] = system: Arabidopsis transformed with TraP8 v2::dgt-14 (pDAB105526); details: for Visual % injury (Ave): 2 weeks after application
Excerpt: as §1, §2, §3, §4

[5] = system: Arabidopsis transformed with TraP9 v2::dgt-14 (pDAB105527); details: for Visual % injury (Ave): 2 weeks after application
Excerpt: as §1, §2, §3, §4

[6] = system: Arabidopsis with dgt-1 (pDAB3759), T2 segregating population; details: 2 weeks after application
Excerpt: as §1, §2, §3, §4

[7] = system: Non-transformed control Arabidopsis (cv. Columbia); details: 2 weeks after application
Excerpt: as §1, §2, §3, §4

[8] = T2, all concentrations of glyphosate tested
[9] = T3, all concentrations of glyphosate tested

Structure (SMILES): O=C(O)CNCP(=O)(O)O [glyphosate, N-(phosphonomethyl)glycine]
- Visual % injury (Ave) ([1]; T1, 105 g ae/ha): 34.5%
- Visual % injury (Ave) ([1]; T1, 420 g ae/ha): 21.3%
- Visual % injury (Ave) ([1]; T1, 1680 g ae/ha): 27.0%
- Visual % injury (Ave) ([1]; T1, 3360 g ae/ha): 32.8%
- Visual % injury (Ave) ([1]; T2, 420 g ae/ha): 0%
- Visual % injury (Ave) ([1]; T2, 1680 g ae/ha): 1.8%
- Visual % injury (Ave) ([1]; T2, 3360 g ae/ha): 3.8%
- injury range [1, 8]: less than 20%
- Visual % injury (Ave) ([1]; T3, 420 g ae/ha): 0.0%
- Visual % injury (Ave) ([1]; T3, 1680 g ae/ha): 0.0%
- Visual % injury (Ave) ([1]; T3, 3360 g ae/ha): 1.8%
- injury range [1, 9]: less than 20%
- Visual % injury (Ave) ([2]; T1, 105 g ae/ha): 64.0%
- Visual % injury (Ave) ([2]; T1, 420 g ae/ha): 99.0%
- Visual % injury (Ave) ([2]; T1, 1680 g ae/ha): 100.0%
- Visual % injury (Ave) ([2]; T2, 420 g ae/ha): 90.0%
- Visual % injury (Ave) ([2]; T2, 1680 g ae/ha): 88.8%
- Visual % injury (Ave) ([2]; T2, 3360 g ae/ha): 94.5%
- Visual % injury (Ave) ([2]; T3, 420 g ae/ha): 85.0%
- Visual % injury (Ave) ([2]; T3, 1680 g ae/ha): 93.7%
- Visual % injury (Ave) ([2]; T3, 3360 g ae/ha): 93.7%
- Visual % injury (Ave) ([3]; T1, 105 g ae/ha): 93.0%
- Visual % injury (Ave) ([3]; T1, 420 g ae/ha): 98.6%
- Visual % injury (Ave) ([3]; T1, 1680 g ae/ha): 98.0%
- Visual % injury (Ave) ([3]; T1, 3360 g ae/ha): 96.0%
- Visual % injury (Ave) ([3]; T2, 420 g ae/ha): 86.3%
- Visual % injury (Ave) ([3]; T2, 1680 g ae/ha): 90.0%
- Visual % injury (Ave) ([3]; T2, 3360 g ae/ha): 97.0%
- Visual % injury (Ave) ([3]; T3, 420 g ae/ha): 93.3%
- Visual % injury (Ave) ([3]; T3, 1680 g ae/ha): 93.0%
- Visual % injury (Ave) ([3]; T3, 3360 g ae/ha): 91.7%
- Visual % injury (Ave) ([4]; T1, 105 g ae/ha): 40.0%
- Visual % injury (Ave) ([4]; T1, 420 g ae/ha): 23.8%
- Visual % injury (Ave) ([4]; T1, 1680 g ae/ha): 66.3%
- Visual % injury (Ave) ([4]; T1, 3360 g ae/ha): 26.5%
- Visual % injury (Ave) ([4]; T2, 420 g ae/ha): 0.5%
- Visual % injury (Ave) ([4]; T2, 840 g ae/ha): 0.0%
- Visual % injury (Ave) ([4]; T2, 1680 g ae/ha): 2.5%
- Visual % injury (Ave) ([4]; T2, 3360 g ae/ha): 5.0%
- injury range [4, 8]: less than 20%
- Visual % injury (Ave) ([4]; T3, 420 g ae/ha): 0.0%
- Visual % injury (Ave) ([4]; T3, 840 g ae/ha): 1.3%
- Visual % injury (Ave) ([4]; T3, 1680 g ae/ha): 0.0%
- Visual % injury (Ave) ([4]; T3, 3360 g ae/ha): 4.0%
- injury range [4, 9]: less than 20%
- Visual % injury (Ave) ([5]; T1, 105 g ae/ha): 23.0%
- Visual % injury (Ave) ([5]; T1, 420 g ae/ha): 37.5%
- Visual % injury (Ave) ([5]; T1, 1680 g ae/ha): 48.8%
- Visual % injury (Ave) ([5]; T1, 3360 g ae/ha): 63.8%
- Visual % injury (Ave) ([5]; T2, 420 g ae/ha): 0.0%
- Visual % injury (Ave) ([5]; T2, 1680 g ae/ha): 1.8%
- Visual % injury (Ave) ([5]; T2, 3360 g ae/ha): 17.5%
- injury range [5, 8]: less than 20%
- Visual % injury (Ave) ([5]; T3, 420 g ae/ha): 0.0%
- Visual % injury (Ave) ([5]; T3, 1680 g ae/ha): 0.0%
- Visual % injury (Ave) ([5]; T3, 3360 g ae/ha): 4.3%
- injury range [5, 9]: less than 20%
- Visual % injury (Ave) ([6]; T1 study, 105 g ae/ha): 40.0%
- Visual % injury (Ave) ([6]; T1 study, 420 g ae/ha): 30.0%
- Visual % injury (Ave) ([6]; T1 study, 1680 g ae/ha): 55.0%
- Visual % injury (Ave) ([6]; T1 study, 3360 g ae/ha): 57.5%
- Visual % injury (Ave) ([6]; T2 study, 420 g ae/ha): 40.0%
- Visual % injury (Ave) ([6]; T2 study, 840 g ae/ha): 47.5%
- Visual % injury (Ave) ([6]; T2 study, 1680 g ae/ha): 41.3%
- Visual % injury (Ave) ([6]; T2 study, 3360 g ae/ha): 35.0%
- Visual % injury (Ave) ([6]; T3 study, 420 g ae/ha): 42.5%
- Visual % injury (Ave) ([6]; T3 study, 840 g ae/ha): 40.0%
- Visual % injury (Ave) ([6]; T3 study, 1680 g ae/ha): 47.5%
- Visual % injury (Ave) ([6]; T3 study, 3360 g ae/ha): 77.5%
- Visual % injury (Ave) ([7]; T1 study, 105 g ae/ha): 100.0%
- Visual % injury (Ave) ([7]; T1 study, 420 g ae/ha): 100.0%
- Visual % injury (Ave) ([7]; T1 study, 1680 g ae/ha): 100.0%
- Visual % injury (Ave) ([7]; T1 study, 3360 g ae/ha): 100.0%
- Visual % injury (Ave) ([7]; T2 study, 420 g ae/ha): 100.0%
- Visual % injury (Ave) ([7]; T2 study, 1680 g ae/ha): 100.0%
- Visual % injury (Ave) ([7]; T2 study, 3360 g ae/ha): 100.0%
- Visual % injury (Ave) ([7]; T3 study, 420 g ae/ha): 100.0%
- Visual % injury (Ave) ([7]; T3 study, 1680 g ae/ha): 100.0%
- Visual % injury (Ave) ([7]; T3 study, 3360 g ae/ha): 100.0%

Source: patent US9873883B2, “Glyphosate resistant plants and associated methods” (Dow AgroSciences LLC, priority 2012, dated 2018)
